Experimental data taken from patent US10662164B2, “Non-beta lactam antibiotics” (University of Notre Dame du Lac, priority 2014, dated 2020).
≈ marks a conversion by molar mass, not a printed value. Where two headings read alike, the source gives them in different places.

What was measured:
S. aureus ATCC 29213 = test: MIC determination; type: cell-based, Staphylococcus aureus; conditions: for MIC: Staphylococcus aureus, read-out: MIC
E. faecium 106 (Van R) = test: MIC determination; type: cell-based; conditions: Enterococcus faecium; vancomycin-resistant clinical isolate; Tables 1 and 5; read-out: MIC
Text: (§1) The ESKAPE organisms (E. faecium NCTC (ATCC 19734), S. aureus ATCC 29213, K. pneumonia ATCC 700603, A. baumannii ATCC 17961, P. aeruginosa ATCC 17853, E. aerogenes ATCC 35029) and E. coli ATCC 25922) in the initial screen, S. aureus ATCC 27660, S. epidermis ATCC 35547, S. haemolyticus ATCC 29970, S. oralis ATCC 9811, S. pyogenes ATCC 49399, B. cereus ATCC 13061, B. licheniformis ATCC 12759, and E. faecalis ATCC 29212 were purchased from the American Type Culture Collection (Manassas, Va., USA). S. aureus strains NRS100, NRS119, NRS120, VRS1, and VRS2 were obtained from the Network on Antimicrobial Resistance in Staphylococcus aureus (Chantilly, Va., USA). E. faecalis strains 201 and 99, and E. faecium strains 119-39A and 106 were collected from Wayne State University School of Medicine.
(§2) The procedure for MIC determination was the same as previously reported (Tran et al., Am. J. Clin. Dermatol. 2015; doi 10.1007/S40257-015-0125-9).

B. cereus ATCC 13061 = test: MIC determination; type: cell-based; conditions: Bacillus cereus, ATCC13061; Tables 1 and 5; read-out: MIC
Text: as §1, §2

E. faecalis ATCC 29212 = test: MIC determination; type: cell-based; conditions: Enterococcus faecalis, ATCC29212; quality-control strain; Tables 1 and 5; read-out: MIC
Text: as §1, §2

S. aureus NRS119 = test: MIC determination; type: cell-based; conditions: Staphylococcus aureus, mecA positive, linezolid-resistant, Tables 1 and 5, read-out: MIC
Text: as §1, §2

E. faecalis 201 (Van S) = test: MIC determination; type: cell-based; conditions: Enterococcus faecalis; vancomycin-susceptible clinical isolate; Tables 1 and 5; read-out: MIC
Text: as §1, §2

E. faecalis 99 (Van R) = test: MIC determination; type: cell-based; conditions: Enterococcus faecalis; vancomycin-resistant clinical isolate; Tables 1 and 5
Text: as §1, §2

S. aureus VRS2 = test: MIC determination; type: cell-based; conditions: Staphylococcus aureus; vancomycin-resistant MRSA (vanA) isolate from Pennsylvania; Tables 1 and 5; read-out: MIC
Text: as §1, §2

S. aureus VRS1 = test: MIC determination; type: cell-based; conditions: Staphylococcus aureus; vancomycin-resistant MRSA (vanA) isolate from Michigan; Tables 1 and 5; read-out: MIC
Text: as §1, §2

S. aureus ATCC 27660 [1] = test: MIC determination; type: cell-based; conditions: Staphylococcus aureus, ATCC27660; mecA positive, resistant to methicillin, oxacillin, tetracycline; Tables 1 and 5; read-out: MIC
Text: as §1, §2

[2] = system: B. licheniformis ATCC 12759; test: MIC determination; type: cell-based; conditions: Bacillus licheniformis, ATCC12759; Tables 1 and 5; read-out: MIC
Text: as §1, §2

[3] = system: S. haemolyticus ATCC 29970; test: MIC determination; type: cell-based; conditions: Staphylococcus haemolyticus, ATCC29970; Tables 1 and 5; read-out: MIC
Text: as §1, §2

S. aureus NRS120 = test: MIC determination; type: cell-based; conditions: Staphylococcus aureus, mecA positive, linezolid-resistant, Tables 1 and 5, read-out: MIC
Text: as §1, §2

[4] = system: E. faecium 119-39A (Van S); test: MIC determination; type: cell-based; conditions: Enterococcus faecium; vancomycin-susceptible clinical isolate; Tables 1 and 5; read-out: MIC
Text: as §1, §2

S. epidermis ATCC 35547 = test: MIC determination; type: cell-based; conditions: Tables 1 and 5; read-out: MIC
Text: as §1, §2

S. aureus NRS100 (COL) = test: MIC determination; type: cell-based; conditions: Staphylococcus aureus, mecA positive, resistant to methicillin, oxacillin, tetracycline, Tables 1 and 5, read-out: MIC
Text: as §1, §2

E. faecium C68 = test: MIC determination; type: cell-based; conditions: Enterococcus faecium, vancomycin-resistant clinical strain from Cleveland hospitals, Table 5
Text: as §2

[5] = cited from earlier work
S. aureus ATCC 27660 [6] = test: Mouse peritonitis model of infection; type: in vivo; conditions: po, single dose given at 1 h after infection
Method: Compounds 60b, 60c, 65b, 66b, 75b and 76b were evaluated in the mouse peritonitis model of infection (Table 2). We used the ICR out-bred strain of mice that provides a heterogeneous population, similar to the human situation, thus, ensuring the relevance of the antibacterial effect. This animal model of infection is widely used, it is easy to carry out, and the end points (death or survival) are rapidly assessed, making it less resource-intensive compared to other infection models. In addition, excellent correlation between MIC and ED50 has been shown for 14 β-lactam antibiotics using this model (Kratochwil et al., Biochem. Pharmacol. 2002, 64, 1355). The mouse peritonitis infection model continues to be an important model for evaluation of the efficacy of antibiotics against human pathogens. We use the iv route of administration in initial efficacy studies, as this allows us to test the efficacy without knowledge of the oral bioavailability of the lead. Evaluation was done at 20 mg/kg.
Female ICR mice (6-8 weeks old, ˜20-g body weight) were used for the PK and peritonitis studies. Animals were purchased from Harlan Laboratories, Inc. (Indianapolis, Ind., USA) and given Teklad 2019 Extruded Rodent Diet and water ad libitum. Mice were maintained in polycarbonate shoebox cages with ¼″ corncob (The Andersons Inc., Maumee, Ohio) and Alpha-dri (Sheperd Specialty Papers, Inc., Richland, Mich.) bedding under 12-h light/12-h dark cycle at 72±2° F.
The mouse peritonitis model was used with S. aureus ATCC 27660, as described previously (Tran et al., Am. J. Clin. Dermatol. 2015; doi 10.1007/S40257-015-0125-9). The final bacterial inocula contained 5×10^7 cfu/mL and 5% mucin (Sigma-Aldrich Chemical Co., St Louis, Mo., USA). Just prior to inoculation, bacteria at 10^8 cfu/mL were mixed 1:1 with 10% mucin. Mice (n=6 per group) were given 0.5 mL of the bacterial inocula intraperitoneally. Mice were given two iv doses of the compounds at 30 min and 7.5 h after infection by tail vein injection. […] Mice were monitored for 48 h, at which time the number of surviving mice were counted.
The effective dose that results in survival of 50% of the mice was determined using Probit analysis (XLSTAT, New York, N.Y.). Groups of six mice per dose level were evaluated in the mouse peritonitis infection model at iv doses of 2.5, 5, 7.5, 10, 15, and 20 mg/kg and after po doses at 2.5, 5, 10, 20, and 40 mg/kg. […]

E. faecium NCTC 7171 = test: MIC determination; type: cell-based, Enterococcus faecium; conditions: Enterococcus faecium, NCTC7171; Table 1; read-out: MIC
S. oralis ATCC 9811 = test: MIC determination; type: cell-based; conditions: Streptococcus oralis, ATCC9811; Table 1; read-out: MIC
Text: as §1, §2

S. pyogenes ATCC 49399 = test: MIC determination; type: cell-based; conditions: Streptococcus pyogenes, ATCC49399; Table 1; read-out: MIC
Text: as §1, §2

[7] = ATCC29213, S. aureus ATCC29213, second numbering, compounds of Scheme 6
[8] = ATCC29213, quality-control, methicillin-susceptible strain, Tables 1 and 5

## Oc1ccc(-c2nc(-c3ccc(Oc4ccccc4)cc3Cl)no2)cc1 [Compound 52a, 4-(3-(2-chloro-4-phenoxyphenyl)-1,2,4-oxadiazol-5-yl)phenol]
S. aureus ATCC 29213; [7]
  MIC: 2 µg/mL (≈ 5.48 µM)
S. aureus ATCC 29213; [8]
  MIC: 2 µg/mL (≈ 5.48 µM)
E. faecium 106 (Van R)
  MIC: 4 µg/mL (≈ 11 µM)
B. cereus ATCC 13061
  MIC: 4 µg/mL (≈ 11 µM)
E. faecalis ATCC 29212
  MIC: 4 µg/mL (≈ 11 µM)
S. aureus NRS119
  MIC: 4 µg/mL (≈ 11 µM)
E. faecalis 201 (Van S)
  MIC: 4 µg/mL (≈ 11 µM)
E. faecalis 99 (Van R)
  MIC: 4 µg/mL (≈ 11 µM)
S. aureus VRS2
  MIC: 2 µg/mL (≈ 5.48 µM)
S. aureus VRS1
  MIC: 2 µg/mL (≈ 5.48 µM)
S. aureus ATCC 27660 [1]
  MIC: 8 µg/mL (≈ 21.9 µM)
[2]
  MIC: 2 µg/mL (≈ 5.48 µM)
[3]
  MIC: 4 µg/mL (≈ 11 µM)
S. aureus NRS120
  MIC: 4 µg/mL (≈ 11 µM)
[4]
  MIC: 4 µg/mL (≈ 11 µM)
S. epidermis ATCC 35547
  MIC: 4 µg/mL (≈ 11 µM)
S. aureus NRS100 (COL)
  MIC: 8 µg/mL (≈ 21.9 µM)
E. faecium C68
  MIC: 4 µg/mL (≈ 11 µM)

## teicoplanin
[5]
  Plasma protein binding: > 91%

## Oc1ccc(-c2nc(-c3ccc(Oc4ccccc4)c(O)c3)no2)cc1 [Compound 51a, 5-(5-(4-hydroxyphenyl)-1,2,4-oxadiazol-3-yl)-2-phenoxyphenol]
S. aureus ATCC 29213; [7]
  MIC: 2 µg/mL (≈ 5.77 µM)
S. aureus ATCC 29213; [8]
  MIC: 2 µg/mL (≈ 5.77 µM)
E. faecium 106 (Van R)
  MIC: 8 µg/mL (≈ 23.1 µM)
B. cereus ATCC 13061
  MIC: 8 µg/mL (≈ 23.1 µM)
E. faecalis ATCC 29212
  MIC: 8 µg/mL (≈ 23.1 µM)
S. aureus NRS119
  MIC: 8 µg/mL (≈ 23.1 µM)
E. faecalis 201 (Van S)
  MIC: 8 µg/mL (≈ 23.1 µM)
E. faecalis 99 (Van R)
  MIC: 16 µg/mL (≈ 46.2 µM)
S. aureus VRS2
  MIC: 8 µg/mL (≈ 23.1 µM)
S. aureus VRS1
  MIC: 8 µg/mL (≈ 23.1 µM)
S. aureus ATCC 27660 [1]
  MIC: 16 µg/mL (≈ 46.2 µM)
[2]
  MIC: 16 µg/mL (≈ 46.2 µM)
[3]
  MIC: 8 µg/mL (≈ 23.1 µM)
S. aureus NRS120
  MIC: 8 µg/mL (≈ 23.1 µM)
[4]
  MIC: 8 µg/mL (≈ 23.1 µM)
S. epidermis ATCC 35547
  MIC: 16 µg/mL (≈ 46.2 µM)
S. aureus NRS100 (COL)
  MIC: 16 µg/mL (≈ 46.2 µM)
E. faecium C68
  MIC: 8 µg/mL (≈ 23.1 µM)

## [N-]=[N+]=Nc1cc(-c2noc(-c3ccc(O)cc3)n2)ccc1Oc1ccccc1 [Compound 53a, 4-(3-(3-azido-4-phenoxyphenyl)-1,2,4-oxadiazol-5-yl)phenol]
S. aureus ATCC 29213; S. aureus ATCC29213, second numbering, compounds of Scheme 6
  antibacterial activity in words (SAR, C/D ring derivatives): demonstrated activity
S. aureus ATCC 29213; [8]
  MIC: 2 µg/mL (≈ 5.39 µM)
E. faecium 106 (Van R)
  MIC: 4 µg/mL (≈ 10.8 µM)
B. cereus ATCC 13061
  MIC: 4 µg/mL (≈ 10.8 µM)
E. faecalis ATCC 29212
  MIC: 2 µg/mL (≈ 5.39 µM)
S. aureus NRS119
  MIC: 4 µg/mL (≈ 10.8 µM)
E. faecalis 201 (Van S)
  MIC: 4 µg/mL (≈ 10.8 µM)
E. faecalis 99 (Van R)
  MIC: 4 µg/mL (≈ 10.8 µM)
S. aureus VRS2
  MIC: 2 µg/mL (≈ 5.39 µM)
S. aureus VRS1
  MIC: 2 µg/mL (≈ 5.39 µM)
S. aureus ATCC 27660 [1]
  MIC: 4 µg/mL (≈ 10.8 µM)
[2]
  MIC: 4 µg/mL (≈ 10.8 µM)
[3]
  MIC: 2 µg/mL (≈ 5.39 µM)
S. aureus NRS120
  MIC: 4 µg/mL (≈ 10.8 µM)
[4]
  MIC: 4 µg/mL (≈ 10.8 µM)
S. epidermis ATCC 35547
  MIC: 2 µg/mL (≈ 5.39 µM)
S. aureus NRS100 (COL)
  MIC: 4 µg/mL (≈ 10.8 µM)
E. faecium C68
  MIC: 4 µg/mL (≈ 10.8 µM)

## CC(=O)NC[C@H]1CN(c2ccc(N3CCOCC3)c(F)c2)C(=O)O1 [linezolid, reference compound]
S. aureus ATCC 29213; [8]
  MIC: 4 µg/mL (≈ 11.9 µM)
S. aureus ATCC 27660 [6]; Staphylococcus aureus, ATCC27660, read-out: ED50
  ED50: 2.8 mg/kg
S. aureus ATCC 27660 [6]
  ED50: 2.8 mg/kg
E. faecium NCTC 7171
  MIC: 2 µg/mL (≈ 5.93 µM)
E. faecium 106 (Van R)
  MIC: 1 µg/mL (≈ 2.96 µM)
B. cereus ATCC 13061
  MIC: 1 µg/mL (≈ 2.96 µM)
E. faecalis ATCC 29212
  MIC: 2 µg/mL (≈ 5.93 µM)
S. aureus NRS119
  MIC: 32 µg/mL (≈ 94.9 µM)
E. faecalis 201 (Van S)
  MIC: 2 µg/mL (≈ 5.93 µM)
E. faecalis 99 (Van R)
  MIC: 1 µg/mL (≈ 2.96 µM)
S. aureus VRS2
  MIC: 2 µg/mL (≈ 5.93 µM)
S. aureus VRS1
  MIC: 2 µg/mL (≈ 5.93 µM)
S. aureus ATCC 27660 [1]
  MIC: 2 µg/mL (≈ 5.93 µM)
[2]
  MIC: 1 µg/mL (≈ 2.96 µM)
S. oralis ATCC 9811
  MIC: 1 µg/mL (≈ 2.96 µM)
[3]
  MIC: 2 µg/mL (≈ 5.93 µM)
S. aureus NRS120
  MIC: 32 µg/mL (≈ 94.9 µM)
[4]
  MIC: 2 µg/mL (≈ 5.93 µM)
S. epidermis ATCC 35547
  MIC: 1 µg/mL (≈ 2.96 µM)
S. aureus NRS100 (COL)
  MIC: 2 µg/mL (≈ 5.93 µM)
S. pyogenes ATCC 49399
  MIC: 1 µg/mL (≈ 2.96 µM)

## Cc1onc(-c2ccccc2)c1C(=O)N[C@@H]1C(=O)N2[C@@H]1SC(C)(C)[C@@H]2C(=O)O [oxacillin]
[5]
  Plasma protein binding: > 91%
